Tests used:
Format in all cases: cell-based
[1] = molecular target: KDR (phospho-KDR, VEGF165-stimulated HUVEC cells) (Homo sapiens (Human), UniProt P35968); assay: KDR autophosphorylation ELISA in HUVEC cells (Example G); conditions: cellular activity; KDR autophosphorylation ELISA in HUVEC cells
How it was run: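 Read-out: phospho-KDR in cell lysates by DuoSet IC ELISA, normalised between VEGF-stimulated DMSO wells (100%) and unstimulated wells (0%). Human endothelial cells were starved overnight in serum-free medium, exposed to compound for 1 h, and then pulsed with 100 ng/mL VEGF165 for 5 min.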

[2] = molecular target: Met (phospho-Met, HGF-stimulated PC-3 prostate cancer cells) (Homo sapiens (Human), UniProt P08581); assay: Met autophosphorylation ELISA in PC-3 cells (Example F); conditions: cellular activity; Met autophosphorylation ELISA in PC-3 cells; read-out: c-Met IC50
Chain of Met (phospho-Met, HGF-stimulated PC-3 prostate cancer cells) (P08581 25-1390): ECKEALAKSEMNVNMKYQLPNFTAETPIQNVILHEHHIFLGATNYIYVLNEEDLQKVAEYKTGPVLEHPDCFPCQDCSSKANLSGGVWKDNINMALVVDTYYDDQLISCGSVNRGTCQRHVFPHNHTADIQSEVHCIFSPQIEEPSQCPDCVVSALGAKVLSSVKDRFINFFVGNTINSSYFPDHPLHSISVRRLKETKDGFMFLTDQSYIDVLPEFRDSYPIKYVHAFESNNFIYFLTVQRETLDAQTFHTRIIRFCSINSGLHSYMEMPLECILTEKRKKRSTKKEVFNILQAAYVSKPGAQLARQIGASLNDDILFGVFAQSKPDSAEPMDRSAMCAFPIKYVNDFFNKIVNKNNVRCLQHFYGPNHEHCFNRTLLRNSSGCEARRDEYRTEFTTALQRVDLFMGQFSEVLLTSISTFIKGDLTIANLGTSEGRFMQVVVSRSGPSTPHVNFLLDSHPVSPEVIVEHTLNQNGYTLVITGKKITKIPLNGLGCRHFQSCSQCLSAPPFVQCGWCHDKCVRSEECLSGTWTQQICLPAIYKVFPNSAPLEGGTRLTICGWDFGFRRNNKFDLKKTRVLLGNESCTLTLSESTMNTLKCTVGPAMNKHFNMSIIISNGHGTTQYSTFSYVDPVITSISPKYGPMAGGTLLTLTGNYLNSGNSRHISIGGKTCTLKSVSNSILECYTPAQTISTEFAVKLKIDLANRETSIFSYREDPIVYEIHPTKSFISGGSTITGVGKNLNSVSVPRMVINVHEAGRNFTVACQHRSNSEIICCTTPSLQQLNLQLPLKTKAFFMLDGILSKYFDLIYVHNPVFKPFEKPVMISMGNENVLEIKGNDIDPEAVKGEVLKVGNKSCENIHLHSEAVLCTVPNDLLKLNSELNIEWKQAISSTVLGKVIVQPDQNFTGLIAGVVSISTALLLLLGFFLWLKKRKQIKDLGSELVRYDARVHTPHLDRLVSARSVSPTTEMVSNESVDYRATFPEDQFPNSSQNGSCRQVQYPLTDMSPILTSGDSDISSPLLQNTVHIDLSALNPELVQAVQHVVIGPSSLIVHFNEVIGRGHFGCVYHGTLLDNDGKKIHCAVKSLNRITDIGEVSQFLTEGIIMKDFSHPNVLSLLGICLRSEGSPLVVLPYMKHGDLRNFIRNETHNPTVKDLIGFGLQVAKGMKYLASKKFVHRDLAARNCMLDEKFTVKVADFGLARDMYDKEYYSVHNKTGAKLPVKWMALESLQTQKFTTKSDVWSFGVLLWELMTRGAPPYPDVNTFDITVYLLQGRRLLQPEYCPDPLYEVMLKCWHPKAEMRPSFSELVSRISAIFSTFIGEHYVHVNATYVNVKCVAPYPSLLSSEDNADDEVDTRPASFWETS
How it was run: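 Compounds were tested on HGF-stimulated PC-3 cells. After 24 h culture and 3 h serum starvation, cells got compound for 1 h and 100 ng/mL HGF for 10 min, and Met tyrosine phosphorylation was measured by ELISA.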

[3] = molecular target: AXL (phospho-AXL, Gas6-stimulated A-172 glioblastoma cells) (Homo sapiens (Human), UniProt P30530); assay: AXL autophosphorylation ELISA in A-172 cells (Example E); conditions: cellular activity; AXL autophosphorylation ELISA in A-172 cells; read-out: Axl IC50
Chain of AXL (phospho-AXL, Gas6-stimulated A-172 glioblastoma cells) (P30530 26-894): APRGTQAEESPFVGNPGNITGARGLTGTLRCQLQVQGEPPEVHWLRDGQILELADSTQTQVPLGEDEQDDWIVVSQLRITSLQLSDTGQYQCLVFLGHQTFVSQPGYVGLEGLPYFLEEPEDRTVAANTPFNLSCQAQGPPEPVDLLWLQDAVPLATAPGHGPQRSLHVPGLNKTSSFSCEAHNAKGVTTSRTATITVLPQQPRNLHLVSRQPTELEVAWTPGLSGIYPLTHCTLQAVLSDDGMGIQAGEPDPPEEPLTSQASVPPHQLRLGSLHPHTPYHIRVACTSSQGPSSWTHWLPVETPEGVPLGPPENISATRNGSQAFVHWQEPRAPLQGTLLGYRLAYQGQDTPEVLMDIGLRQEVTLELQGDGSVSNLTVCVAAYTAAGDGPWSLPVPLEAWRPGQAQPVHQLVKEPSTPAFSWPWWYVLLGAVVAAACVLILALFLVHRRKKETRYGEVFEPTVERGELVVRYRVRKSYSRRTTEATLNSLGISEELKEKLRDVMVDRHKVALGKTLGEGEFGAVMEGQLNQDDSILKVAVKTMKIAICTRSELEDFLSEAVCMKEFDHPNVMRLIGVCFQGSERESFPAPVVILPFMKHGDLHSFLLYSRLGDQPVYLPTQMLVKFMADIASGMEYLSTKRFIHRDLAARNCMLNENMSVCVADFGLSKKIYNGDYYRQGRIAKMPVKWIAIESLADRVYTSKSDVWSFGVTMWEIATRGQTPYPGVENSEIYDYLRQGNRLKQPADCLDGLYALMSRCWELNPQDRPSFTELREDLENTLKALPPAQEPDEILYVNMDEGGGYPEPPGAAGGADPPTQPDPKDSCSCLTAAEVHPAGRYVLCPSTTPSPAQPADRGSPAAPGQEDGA
How it was run: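 Phospho-AXL was measured by ELISA in lysates of Gas6-stimulated A-172 cells, starved 24 h in serum-free medium and exposed 1 h to an 8-point compound dilution at 0.3% DMSO.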

[4] = molecular target: Mer (phospho-Mer, MERTK-transfected 293A cells) (Homo sapiens (Human), UniProt Q12866); assay: Mer autophosphorylation ELISA in transient transfected 293A cells (Example H); conditions: cellular activity; Mer autophosphorylation ELISA in transient transfected 293A cells
Chain of Mer (phospho-Mer, MERTK-transfected 293A cells) (Q12866 21-999): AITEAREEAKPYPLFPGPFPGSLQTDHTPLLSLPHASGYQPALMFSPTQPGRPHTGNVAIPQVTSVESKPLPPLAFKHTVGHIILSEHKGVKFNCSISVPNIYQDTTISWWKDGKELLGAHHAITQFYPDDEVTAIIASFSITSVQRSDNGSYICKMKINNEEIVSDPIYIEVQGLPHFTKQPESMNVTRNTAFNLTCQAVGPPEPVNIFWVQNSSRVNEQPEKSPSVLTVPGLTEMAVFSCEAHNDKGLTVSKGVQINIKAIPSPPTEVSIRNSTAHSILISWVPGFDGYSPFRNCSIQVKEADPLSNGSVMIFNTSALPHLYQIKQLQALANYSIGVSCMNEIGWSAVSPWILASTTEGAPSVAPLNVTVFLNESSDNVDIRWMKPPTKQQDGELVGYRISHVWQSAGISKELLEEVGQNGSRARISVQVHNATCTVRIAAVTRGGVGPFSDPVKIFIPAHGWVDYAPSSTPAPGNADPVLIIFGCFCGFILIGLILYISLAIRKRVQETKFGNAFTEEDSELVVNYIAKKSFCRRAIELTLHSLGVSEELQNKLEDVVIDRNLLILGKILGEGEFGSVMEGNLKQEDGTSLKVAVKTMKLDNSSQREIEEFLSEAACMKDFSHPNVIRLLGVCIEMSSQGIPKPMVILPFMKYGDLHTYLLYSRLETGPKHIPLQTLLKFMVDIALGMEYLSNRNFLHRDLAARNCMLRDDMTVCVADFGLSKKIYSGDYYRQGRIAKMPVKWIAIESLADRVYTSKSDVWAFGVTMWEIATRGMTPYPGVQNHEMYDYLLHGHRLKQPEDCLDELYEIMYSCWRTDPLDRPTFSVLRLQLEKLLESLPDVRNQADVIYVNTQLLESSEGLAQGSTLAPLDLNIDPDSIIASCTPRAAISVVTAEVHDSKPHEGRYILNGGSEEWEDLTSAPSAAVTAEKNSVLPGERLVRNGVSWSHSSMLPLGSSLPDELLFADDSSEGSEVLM
How it was run: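 IC50 from 4-parameter logistic fit of phospho-Mer levels, quantified by ELISA against a phospho-Mer standard in lysates of MERTK-transfected 293A cells. Cells exposed 1 h to 8-point serial dilutions, serum-free, 0.3% DMSO; controls: DMSO (100%) and reference inhibitor (0%).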

Chain of KDR (phospho-KDR, VEGF165-stimulated HUVEC cells) (P35968 20-1356): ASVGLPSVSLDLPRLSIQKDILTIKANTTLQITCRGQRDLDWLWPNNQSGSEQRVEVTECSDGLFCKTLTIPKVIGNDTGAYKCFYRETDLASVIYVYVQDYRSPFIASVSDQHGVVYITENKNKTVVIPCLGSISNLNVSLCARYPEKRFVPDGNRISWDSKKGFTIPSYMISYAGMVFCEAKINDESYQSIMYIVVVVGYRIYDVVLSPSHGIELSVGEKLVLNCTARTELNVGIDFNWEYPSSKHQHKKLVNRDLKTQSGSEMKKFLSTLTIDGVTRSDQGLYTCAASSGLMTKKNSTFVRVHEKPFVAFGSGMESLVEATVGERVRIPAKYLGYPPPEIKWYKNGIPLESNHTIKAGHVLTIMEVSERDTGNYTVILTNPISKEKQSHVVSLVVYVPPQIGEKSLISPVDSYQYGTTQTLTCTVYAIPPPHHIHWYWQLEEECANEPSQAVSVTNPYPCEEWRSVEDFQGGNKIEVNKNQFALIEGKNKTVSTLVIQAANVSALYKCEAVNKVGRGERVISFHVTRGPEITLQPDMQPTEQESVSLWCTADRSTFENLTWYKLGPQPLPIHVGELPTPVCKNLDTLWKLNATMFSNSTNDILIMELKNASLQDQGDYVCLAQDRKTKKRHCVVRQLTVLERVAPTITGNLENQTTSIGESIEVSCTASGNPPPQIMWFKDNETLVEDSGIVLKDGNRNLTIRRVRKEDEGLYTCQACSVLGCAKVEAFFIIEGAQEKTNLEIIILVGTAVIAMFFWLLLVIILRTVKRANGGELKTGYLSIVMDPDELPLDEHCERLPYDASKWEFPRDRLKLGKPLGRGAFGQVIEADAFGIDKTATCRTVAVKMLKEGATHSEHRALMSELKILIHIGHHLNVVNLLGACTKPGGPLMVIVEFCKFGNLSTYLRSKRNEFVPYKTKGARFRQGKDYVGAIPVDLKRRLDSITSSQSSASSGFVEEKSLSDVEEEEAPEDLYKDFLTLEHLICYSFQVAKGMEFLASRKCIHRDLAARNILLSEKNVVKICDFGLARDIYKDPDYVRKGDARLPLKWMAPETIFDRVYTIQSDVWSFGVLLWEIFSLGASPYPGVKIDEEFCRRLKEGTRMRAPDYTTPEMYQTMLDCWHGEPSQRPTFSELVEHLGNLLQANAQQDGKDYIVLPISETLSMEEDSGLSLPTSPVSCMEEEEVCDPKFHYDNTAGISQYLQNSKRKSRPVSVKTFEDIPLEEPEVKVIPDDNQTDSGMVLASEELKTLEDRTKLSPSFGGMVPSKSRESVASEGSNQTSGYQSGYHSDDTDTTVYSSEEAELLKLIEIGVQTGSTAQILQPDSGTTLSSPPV

IC50 [1]	IC50 [2]	IC50 [3]	IC50 [4]	Compound
> 300 nM	< 100 nM	< 100 nM	< 100 nM	COc1cc2nccc(Oc3ccc(NC(=O)c4cn(C(C)(C)CO)cc(-c5ccc(F)cc5)c4=O)cc3F)c2nc1OC [Compound 56, N-[4-[(6,7-Dimethoxy-1,5-naphthyridin-4-yl)oxy]-3-fluorophenyl]-5-(4-fluorophenyl)-1-(1-hydroxy-2-methylpropan-2-yl)-4-oxopyridine-3-carboxamide]
< 100 nM	< 100 nM	< 100 nM	< 100 nM	COCCOc1cc2ncnc(Oc3ccc(NC(=O)c4ccc(C)n(-c5ccc(F)cc5)c4=O)cc3F)c2nc1OC [Compound 638, N-[3-fluoro-4-[6-methoxy-7-(2-methoxyethoxy)pyrido[3,2-d]pyrimidin-4-yl]oxyphenyl]-1-(4-fluorophenyl)-6-methyl-2-oxopyridine-3-carboxamide]
< 100 nM	< 100 nM	< 100 nM	< 100 nM	COc1cc2nccc(Oc3ccc(NC(=O)c4cn(C)c(C)c(-c5ccc(F)cc5F)c4=O)cc3)c2nc1OC [Compound 396, 5-(2,4-difluorophenyl)-N-[4-[(6,7-dimethoxy-1,5-naphthyridin-4-yl)oxy]phenyl]-1,6-dimethyl-4-oxopyridine-3-carboxamide]
< 100 nM	< 100 nM	< 100 nM	< 100 nM	COc1cc2nccc(Oc3ccc(NC(=O)c4c(C)c(Br)c(C)n(-c5ccc(F)cc5)c4=O)cc3)c2nc1OC [Compound 313, 5-Bromo-N-[4-[(6,7-dimethoxy-1,5-naphthyridin-4-yl)oxy]phenyl]-1-(4-fluorophenyl)-4,6-dimethyl-2-oxopyridine-3-carboxamide]
< 100 nM	< 100 nM	< 100 nM	< 100 nM	COc1cnc2c(Oc3ccc(NC(=O)c4cnc(C)c(-c5ccc(F)c(OC)c5)c4O)cc3F)ccnc2c1 [Compound 670, N-[3-fluoro-4-[(7-methoxy-1,5-naphthyridin-4-yl)oxy]phenyl]-5-(4-fluoro-3-methoxyphenyl)-4-hydroxy-6-methylpyridine-3-carboxamide]
< 100 nM	< 100 nM	< 100 nM	< 100 nM	COCc1ccc(C(=O)Nc2ccc(Oc3ccnc4cc(OC)c(OC)nc34)c(F)c2)c(=O)n1-c1ccc(F)cc1 [Compound 358, N-[4-[(6,7-dimethoxy-1,5-naphthyridin-4-yl)oxy]-3-fluorophenyl]-1-(4-fluorophenyl)-6-(methoxymethyl)-2-oxopyridine-3-carboxamide]
< 100 nM	< 100 nM	< 100 nM	< 100 nM	COc1cc2nccc(Oc3ccc(NC(=O)c4c(C)c(C)c(C)n(-c5ccc(F)cc5)c4=O)cc3)c2nc1OC [Compound 315, N-[4-[(6,7-Dimethoxy-1,5-naphthyridin-4-yl)oxy]phenyl]-1-(4-fluorophenyl)-4,5,6-trimethyl-2-oxopyridine-3-carboxamide]
> 300 nM	< 100 nM	< 100 nM	< 100 nM	COc1cc2nccc(Oc3ccc(NC(=O)c4c5n(c(C)c(-c6ccc(F)cc6C)c4=O)CCOC5)cc3F)c2nc1OC [Compound 782, N-[4-[(6,7-dimethoxy-1,5-naphthyridin-4-yl)oxy]-3-fluorophenyl]-7-(4-fluoro-2-methylphenyl)-6-methyl-8-oxo-3,4-dihydro-1H-pyrido[2,1-c][1,4]oxazine-9-carboxamide]
< 100 nM	< 100 nM	< 100 nM	< 100 nM	COc1cc2nccc(Oc3ccc(NC(=O)c4cccn(-c5ccc(F)cc5)c4=O)cc3)c2nc1OC [Compound 361, N-[4-[(6,7-dimethoxy-1,5-naphthyridin-4-yl)oxy]phenyl]-1-(4-fluorophenyl)-2-oxopyridine-3-carboxamide]
100 to 300 nM	< 100 nM	< 100 nM	< 100 nM	COc1cc2nccc(Oc3ccc(NC(=O)c4nn(C(F)F)c(C)c(-c5ccc(F)cc5)c4=O)cc3F)c2nc1OC [Compound 721, 1-(difluoromethyl)-N-[4-[(6,7-dimethoxy-1,5-naphthyridin-4-yl)oxy]-3-fluorophenyl]-5-(4-fluorophenyl)-6-methyl-4-oxopyridazine-3-carboxamide]
< 100 nM	< 100 nM	< 100 nM	< 100 nM	COc1cc(F)ccc1-c1cnc(C)c(C(=O)Nc2ccc(Oc3ccnc4cc(OC)c(OC)nc34)c(F)c2)c1O [Compound 792, N-[4-[(6,7-dimethoxy-1,5-naphthyridin-4-yl)oxy]-3-fluorophenyl]-5-(4-fluoro-2-methoxyphenyl)-4-hydroxy-2-methylpyridine-3-carboxamide]
100 to 300 nM	< 100 nM	< 100 nM	< 100 nM	COc1cc2nccc(Oc3ccc(NC(=O)c4c(C)n(C)c(C)c(-c5ccc(F)cc5C)c4=O)cc3F)c2nc1OC [Compound 774, N-[4-[(6,7-dimethoxy-1,5-naphthyridin-4-yl)oxy]-3-fluorophenyl]-5-(4-fluoro-2-methylphenyl)-1,2,6-trimethyl-4-oxopyridine-3-carboxamide]
< 100 nM	< 100 nM	< 100 nM	< 100 nM	COCc1nc(C)c(-c2ccc(F)cc2)c(O)c1C(=O)Nc1ccc(Oc2ccnc3cnc(Cl)cc23)c(F)c1 [Compound 502, N-[4-[(6-Chloro-1,7-naphthyridin-4-yl)oxy]-3-fluorophenyl]-5-(4-fluorophenyl)-4-hydroxy-2-(methoxymethyl)-6-methylpyridine-3-carboxamide]
< 100 nM	< 100 nM	< 100 nM	< 100 nM	COc1cnc2c(Oc3ccc(NC(=O)c4c(C)nc(C)c(-c5ccc(F)cc5OC)c4O)cc3F)ccnc2c1 [Compound 686, N-[3-fluoro-4-[(7-methoxy-1,5-naphthyridin-4-yl)oxy]phenyl]-5-(4-fluoro-2-methoxyphenyl)-4-hydroxy-2,6-dimethylpyridine-3-carboxamide]
< 100 nM	< 100 nM	< 100 nM	< 100 nM	COCCOc1cc2nccc(Oc3ccc(NC(=O)c4c(C)cc(C)n(-c5ccc(F)cc5)c4=O)cc3F)c2nc1OC [Compound 485, N-[3-fluoro-4-[[6-methoxy-7-(2-methoxyethoxy)-1,5-naphthyridin-4-yl]oxy]phenyl]-1-(4-fluorophenyl)-4,6-dimethyl-2-oxopyridine-3-carboxamide]
> 300 nM	< 100 nM	< 100 nM	< 100 nM	CCc1c(C)c(C(=O)Nc2ccc(Oc3ccnc4cc(OC)c(OC)nc34)c(F)c2)c(=O)n(-c2ccc(F)cc2)c1C [Compound 330, N-[4-[(6,7-dimethoxy-1,5-naphthyridin-4-yl)oxy]-3-fluorophenyl]-5-ethyl-1-(4-fluorophenyl)-4,6-dimethyl-2-oxopyridine-3-carboxamide]
> 300 nM	< 100 nM	100 to 300 nM	< 100 nM	CNc1c(C(=O)Nc2ccc(Oc3ccnc4cc(OC)c(OC)nc34)c(F)c2)c(=O)c(-c2ccc(F)cc2)c(C)n1C [Compound 649, N-[4-[(6,7-dimethoxy-1,5-naphthyridin-4-yl)oxy]-3-fluorophenyl]-5-(4-fluorophenyl)-1,6-dimethyl-2-(methylamino)-4-oxopyridine-3-carboxamide]
< 100 nM	< 100 nM	< 100 nM	< 100 nM	COc1cnc2c(Oc3ccc(NC(=O)c4c(C)nc(C)c(-c5ccc(F)c(C)c5)c4O)cc3F)ccnc2c1 [Compound 689, N-[3-fluoro-4-[(7-methoxy-1,5-naphthyridin-4-yl)oxy]phenyl]-5-(4-fluoro-3-methylphenyl)-4-hydroxy-2,6-dimethylpyridine-3-carboxamide]
< 100 nM	< 100 nM	< 100 nM	< 100 nM	COc1cc2nccc(Oc3cc(F)c(NC(=O)c4c(C)nc(C)c(-c5ccc(F)cc5C)c4O)cc3F)c2nc1Cl [Compound 737, N-[4-[(6-chloro-7-methoxy-1,5-naphthyridin-4-yl)oxy]-2,5-difluorophenyl]-5-(4-fluoro-2-methylphenyl)-4-hydroxy-2,6-dimethylpyridine-3-carboxamide]
> 300 nM	< 100 nM	< 100 nM	< 100 nM	COc1cc2nccc(Oc3cc(C)c(NC(=O)c4cn(C)c(C)c(-c5ccc(F)cc5)c4=O)cc3F)c2nc1OC [Compound 744, N-[4-[(6,7-dimethoxy-1,5-naphthyridin-4-yl)oxy]-5-fluoro-2-methylphenyl]-5-(4-fluorophenyl)-1,6-dimethyl-4-oxopyridine-3-carboxamide]

From patent publication US12371428B2 (Exelixis, Inc., priority 2019, dated 2025)
